This is an account of results in patent US9073874B2, “Cyclic N,N′-diarylthioureas and N,N′-diarylureas-androgen receptor antagonists, anticancer agent, method for preparation and use thereof” (priority 2010, dated 2015).

One test addresses B2 (h) (Homo sapiens, UniProt P30411). Nature of the test: competitive radioligand binding assay, B2 (h) (agonist radioligand).
Another test concerns the target T1, androgen receptors (Homo sapiens, UniProt P10275, T878A).
T1 construct: host or cells: LNCaP
T1 sequence (P10275 1-920 T878A): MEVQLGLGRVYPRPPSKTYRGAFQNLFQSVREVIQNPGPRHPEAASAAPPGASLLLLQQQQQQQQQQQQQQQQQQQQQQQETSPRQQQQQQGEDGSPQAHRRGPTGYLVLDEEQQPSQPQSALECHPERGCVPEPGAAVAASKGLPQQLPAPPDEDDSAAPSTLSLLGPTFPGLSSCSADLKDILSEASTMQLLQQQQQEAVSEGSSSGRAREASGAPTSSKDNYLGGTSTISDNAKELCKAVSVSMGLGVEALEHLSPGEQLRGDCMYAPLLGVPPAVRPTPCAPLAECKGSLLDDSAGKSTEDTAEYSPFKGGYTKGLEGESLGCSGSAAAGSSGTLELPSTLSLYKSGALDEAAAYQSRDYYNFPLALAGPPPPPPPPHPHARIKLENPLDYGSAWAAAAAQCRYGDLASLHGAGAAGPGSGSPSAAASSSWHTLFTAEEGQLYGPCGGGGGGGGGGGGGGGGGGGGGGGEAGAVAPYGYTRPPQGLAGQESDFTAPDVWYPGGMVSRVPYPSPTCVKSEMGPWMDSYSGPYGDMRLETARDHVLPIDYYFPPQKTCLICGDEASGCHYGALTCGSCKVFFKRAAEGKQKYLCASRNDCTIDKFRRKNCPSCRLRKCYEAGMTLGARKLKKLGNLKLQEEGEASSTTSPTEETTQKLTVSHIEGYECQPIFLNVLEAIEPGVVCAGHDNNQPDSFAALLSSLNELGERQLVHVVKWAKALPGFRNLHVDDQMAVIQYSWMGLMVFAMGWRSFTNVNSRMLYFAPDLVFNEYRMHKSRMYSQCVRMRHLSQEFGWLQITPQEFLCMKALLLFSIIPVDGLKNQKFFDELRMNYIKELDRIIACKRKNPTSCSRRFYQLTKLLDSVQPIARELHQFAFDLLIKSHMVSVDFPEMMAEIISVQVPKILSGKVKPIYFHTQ
Briefly: cell-based. Format: cell-based. The procedure: The expression of PSA was measured in the culture medium 24 hours thereafter (FIG. 1). […] The LnCAP cells were cultured for a further 5 days and the number of viable cells was then calculated.
FIG. 1. Inhibition of DHT-stimulated PSA expression in LnCAP cells.
These cells are sensitive towards 5-a-dihydrotestosterone (DHT) and in the presence thereof produce cancer markers (PSA). […] Before the experiment, the cells were washed and suspended in the same medium, in which, however, a serum treated with charcoal for removal of hormone traces was used instead of calf serum. The cells (10 000 in total) were embedded into the wells of 96-well plates at 100 μl per well and left for 4 days in an incubator at 37° C. […] The cells were incubated for a further 5 days under the same conditions. Then, samples of the supracellular medium were taken and analyzed for PSA. The test was carried out according to the protocol recommended by the manufacturer of the kit for PSA measurement (Alpha Diagnostic International, USA). After wetting the wells containing PSA antibodies attached to their bottoms, 25 μl of test compounds and 100 μl of PSA antibodies pre-conjugated to horseradish peroxidase were added successively to each well. Following a 30-minute incubation at room temperature, the content of each well was removed, the wells were washed several times, and 100 μl of a peroxidase chromogenic substrate was then added to each well. […] Based on data about the dependence of DHT-related reduction of PSA synthesis on the concentration of test compounds, dose-response curves were plotted to determine IC50 values. Said values were used for calculating apparent inhibition constants (Ki) for compounds of general formula I according to Cheng-Prusoff equation. [Cheng, Y., Prusoff, W. H. “Relationship between the inhibition constant (Ki) and the concentration of inhibitor which causes 50 percent inhibition (IC50) of an enzymatic reaction”. Biochem Pharmacol.

The test system of test [1] is sigma (non-selective) (h). Briefly: competitive radioligand binding assay, sigma (non-selective) (h) (agonist radioligand). Further details: species or system human. As to conditions: 10 μM.
The next test concerns the target NK3 (h) (Homo sapiens, UniProt P29371). Briefly: competitive radioligand binding assay, NK3 (h) (antagonist radioligand).
A further test concerns the target GR (h) (Homo sapiens, UniProt P04150). Nature of the test: competitive radioligand binding assay, GR (h) (agonist radioligand).
A further test deals with Na+ channel (site 2). Nature of the test: competitive radioligand binding assay, Na+ channel (site 2) (antagonist radioligand). As to conditions: 10 μM.
In a further test the target is PR (h) (Homo sapiens, UniProt P06401). Nature of the test: competitive radioligand binding assay, PR (h) (agonist radioligand).
Sequence of PR (h) (P06401 whole entry): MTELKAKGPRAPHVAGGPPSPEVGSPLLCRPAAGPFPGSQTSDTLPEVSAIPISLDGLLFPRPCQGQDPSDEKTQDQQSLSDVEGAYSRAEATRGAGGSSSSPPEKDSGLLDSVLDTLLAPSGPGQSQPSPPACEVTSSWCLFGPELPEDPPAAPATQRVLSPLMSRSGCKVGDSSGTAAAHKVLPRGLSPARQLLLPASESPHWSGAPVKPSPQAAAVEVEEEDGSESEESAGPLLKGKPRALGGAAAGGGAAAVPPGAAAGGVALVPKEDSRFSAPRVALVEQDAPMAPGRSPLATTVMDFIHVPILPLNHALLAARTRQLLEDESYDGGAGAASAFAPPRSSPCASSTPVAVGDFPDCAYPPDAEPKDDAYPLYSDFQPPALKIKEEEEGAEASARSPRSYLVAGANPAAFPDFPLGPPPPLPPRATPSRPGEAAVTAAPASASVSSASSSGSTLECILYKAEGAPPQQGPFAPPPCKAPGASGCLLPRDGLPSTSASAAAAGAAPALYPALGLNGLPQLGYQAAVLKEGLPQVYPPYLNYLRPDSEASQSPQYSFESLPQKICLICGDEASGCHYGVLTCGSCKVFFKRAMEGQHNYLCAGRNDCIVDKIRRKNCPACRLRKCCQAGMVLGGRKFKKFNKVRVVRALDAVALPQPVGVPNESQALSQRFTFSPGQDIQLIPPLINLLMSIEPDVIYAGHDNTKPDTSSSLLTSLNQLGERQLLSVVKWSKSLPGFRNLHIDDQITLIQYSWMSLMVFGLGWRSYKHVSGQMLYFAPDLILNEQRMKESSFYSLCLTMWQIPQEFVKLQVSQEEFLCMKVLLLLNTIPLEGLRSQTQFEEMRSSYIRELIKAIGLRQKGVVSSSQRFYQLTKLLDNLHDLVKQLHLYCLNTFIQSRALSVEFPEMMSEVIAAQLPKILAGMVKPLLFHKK

Structures are written as SMILES.

Sequence of NK3 (h) (P29371 whole entry): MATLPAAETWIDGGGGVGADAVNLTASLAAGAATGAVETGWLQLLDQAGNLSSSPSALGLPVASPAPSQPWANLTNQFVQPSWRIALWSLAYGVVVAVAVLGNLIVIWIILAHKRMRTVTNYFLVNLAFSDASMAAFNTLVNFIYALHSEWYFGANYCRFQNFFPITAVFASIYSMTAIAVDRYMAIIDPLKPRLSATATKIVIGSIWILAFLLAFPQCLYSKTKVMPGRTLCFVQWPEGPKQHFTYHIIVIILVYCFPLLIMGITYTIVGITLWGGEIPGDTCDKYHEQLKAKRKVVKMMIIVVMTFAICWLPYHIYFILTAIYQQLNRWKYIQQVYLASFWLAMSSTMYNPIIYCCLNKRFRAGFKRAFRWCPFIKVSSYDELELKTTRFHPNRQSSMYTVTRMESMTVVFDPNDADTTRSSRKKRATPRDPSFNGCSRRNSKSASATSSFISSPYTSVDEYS
Sequence of B2 (h) (P30411 whole entry): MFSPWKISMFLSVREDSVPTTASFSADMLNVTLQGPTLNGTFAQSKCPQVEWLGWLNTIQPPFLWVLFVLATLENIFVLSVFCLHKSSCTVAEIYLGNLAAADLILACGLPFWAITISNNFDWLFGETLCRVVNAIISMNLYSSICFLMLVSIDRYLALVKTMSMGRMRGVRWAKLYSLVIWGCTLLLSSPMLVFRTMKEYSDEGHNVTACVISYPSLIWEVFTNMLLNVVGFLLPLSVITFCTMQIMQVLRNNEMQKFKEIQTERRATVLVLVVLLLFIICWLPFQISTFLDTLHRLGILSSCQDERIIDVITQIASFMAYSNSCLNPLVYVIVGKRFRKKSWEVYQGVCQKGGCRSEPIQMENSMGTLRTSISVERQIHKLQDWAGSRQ
Sequence of GR (h) (P04150 whole entry): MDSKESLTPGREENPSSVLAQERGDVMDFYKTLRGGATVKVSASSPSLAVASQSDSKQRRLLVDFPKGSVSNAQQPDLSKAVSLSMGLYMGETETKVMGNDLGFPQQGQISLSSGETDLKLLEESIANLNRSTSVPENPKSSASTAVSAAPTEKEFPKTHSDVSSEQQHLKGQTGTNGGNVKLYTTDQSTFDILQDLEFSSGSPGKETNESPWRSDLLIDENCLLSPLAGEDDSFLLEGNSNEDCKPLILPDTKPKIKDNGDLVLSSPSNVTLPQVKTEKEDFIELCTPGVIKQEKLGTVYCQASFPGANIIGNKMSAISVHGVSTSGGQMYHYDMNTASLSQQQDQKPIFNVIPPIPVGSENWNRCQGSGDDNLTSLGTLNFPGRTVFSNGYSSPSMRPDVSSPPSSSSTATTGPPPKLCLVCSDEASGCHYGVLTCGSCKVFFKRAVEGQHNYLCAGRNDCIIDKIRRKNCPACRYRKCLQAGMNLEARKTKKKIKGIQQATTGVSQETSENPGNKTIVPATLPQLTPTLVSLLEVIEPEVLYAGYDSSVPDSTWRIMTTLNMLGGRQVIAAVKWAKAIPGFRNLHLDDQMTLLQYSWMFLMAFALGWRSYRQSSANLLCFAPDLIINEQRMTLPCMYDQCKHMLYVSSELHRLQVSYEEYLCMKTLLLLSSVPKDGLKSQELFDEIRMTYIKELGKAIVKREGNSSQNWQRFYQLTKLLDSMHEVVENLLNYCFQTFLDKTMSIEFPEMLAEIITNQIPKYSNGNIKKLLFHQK

Take `CNC(=O)c1ccc(N2C(=S)N(c3ccc(C#N)c(C(F)(F)F)c3)C(=O)[C@]23CCOC3)cc1F` [(R)-1, 4-[(R)-3-(4-cyano-3-trifluoromethyl-phenyl)-4-oxo-2-thioxo-7-oxa-1,3-diaza-spiro[4.4]non-1-yl]-2-fluoro-N-methyl-benzamide]: the inhibition – broadly, the relative decrease from the control value, in per cent – at 10 µM is -5.2% on B2 (h), -4.5% at NK3 (h), 29.4% on GR (h) and 66.6% at PR (h). Further, the “AR antagonistic activity (in words)” value at androgen receptors was “even greater AR antagonistic activity”. At androgen receptors, the “fold more efficient than III in inhibiting DHT-induced PSA expression” value is “around 1.9 fold”. The “fold more efficient than Ia in inhibiting DHT-induced PSA expression” value at androgen receptors is reported as “around 1.5 fold”. For the same compound, the “fold more potent than (S)-stereoisomer (S)-1” value on androgen receptors is given as “more than 10 fold”. For the same compound, the Ki (commonly the equilibrium dissociation constant of an inhibitor or competing ligand from its target) on androgen receptors (read-out: Ki, inhibition of DHT-induced PSA expression) worked out at 20 nM. The % Inhibition (in general, the change of the read-out against control, counted positive when it falls) in test [1] is given as 9.8%; with Na+ channel (site 2), −11.6%.
